Laboratory results reported in patent US20040136985A1, “Methods of modifying behavior of CD9-expressing cells” (priority 2002, published 2004).
pEC50, pKd: −log10 of the molar value. Entries after “also recorded” stand apart in the source; their conditions may differ. Read-outs that look alike come from different tables or passages of the source. Where no end group is shown, it is not given here.

Assays:
FN/CD9 interaction = assay: ELISA modified for effects of metal salts on the FN/CD9 interaction; format: binding, human; settings: 0-4.5 mM metal salt
Experimental: The standard ELISA assay format was modified to evaluate the effects of divalent and monovalent metal salts on the FN/CD9 interaction. The ELISA buffers contained 0.5 mM EGTA and metal salt was excluded from antigen plating and primary wash step. Antigen was plated in Buffer D. The plates were washed once with Buffer E and then blocked with Blocking Buffer 2. Subsequent steps up to and including the second wash after the FN overlay were done in Buffer F, which contained 0-4.5 mM metal salt. After the FN overlay, plates were washed once with Buffer F (+/−metal salt), then twice with Buffer G. The subsequent incubations and washes were performed with Buffer G.

human coronary SMCs [1] = assay: Verification that hydroxyurea prevents SMC proliferation (thymidine incorporation); format: cell-based; settings: 5 mM hydroxyurea
Experimental: (§1) Cell migration was measured via a monolayer-wounding assay, as described by Brown et al. (Circ Res. 84:655-667 (1999), which is hereby incorporated by reference in its entirety). Briefly, 100% confluent cells were treated with serum-free medium containing hydroxyurea (5 mM)(DMEM supplemented with 100 U/mL penicillin, 100 μg/mL streptomycin and 5 mM hydroxyurea) for 24 h before the start of experiments. Hydroxyurea was used to prevent cell proliferation and block the possible effect of CD9 on SMCs proliferation. The capacity of hydroxyurea to prevent proliferation was verified by showing that it inhibited thymidine incorporation by >99%. After incubation with hydroxyurea, cells were rinsed with DMEM (serum free), and a ≈1 mm wide scratch was made with a sterile 20 ul tip with the help of a ruler. After that, the cells were incubated in the DMEM medium. […] Plates were rinsed twice with PBS, and analyzed via computerized image analysis system (scion Image CMS-800). Cell migration was expressed as the distance migrated in the 24 hours (Chang et al., Circ. Res. 91(5):390-397 (2002), which is hereby incorporated by reference in its entirety). […]

FN [2] = target: FN (Homo sapiens, UniProt P02751); assay: Surface plasmon resonance biosensor analysis of FN captured by anti-FN mAbs; format: binding
FN (Homo sapiens, UniProt P02751), sequence (P02751 32-2477): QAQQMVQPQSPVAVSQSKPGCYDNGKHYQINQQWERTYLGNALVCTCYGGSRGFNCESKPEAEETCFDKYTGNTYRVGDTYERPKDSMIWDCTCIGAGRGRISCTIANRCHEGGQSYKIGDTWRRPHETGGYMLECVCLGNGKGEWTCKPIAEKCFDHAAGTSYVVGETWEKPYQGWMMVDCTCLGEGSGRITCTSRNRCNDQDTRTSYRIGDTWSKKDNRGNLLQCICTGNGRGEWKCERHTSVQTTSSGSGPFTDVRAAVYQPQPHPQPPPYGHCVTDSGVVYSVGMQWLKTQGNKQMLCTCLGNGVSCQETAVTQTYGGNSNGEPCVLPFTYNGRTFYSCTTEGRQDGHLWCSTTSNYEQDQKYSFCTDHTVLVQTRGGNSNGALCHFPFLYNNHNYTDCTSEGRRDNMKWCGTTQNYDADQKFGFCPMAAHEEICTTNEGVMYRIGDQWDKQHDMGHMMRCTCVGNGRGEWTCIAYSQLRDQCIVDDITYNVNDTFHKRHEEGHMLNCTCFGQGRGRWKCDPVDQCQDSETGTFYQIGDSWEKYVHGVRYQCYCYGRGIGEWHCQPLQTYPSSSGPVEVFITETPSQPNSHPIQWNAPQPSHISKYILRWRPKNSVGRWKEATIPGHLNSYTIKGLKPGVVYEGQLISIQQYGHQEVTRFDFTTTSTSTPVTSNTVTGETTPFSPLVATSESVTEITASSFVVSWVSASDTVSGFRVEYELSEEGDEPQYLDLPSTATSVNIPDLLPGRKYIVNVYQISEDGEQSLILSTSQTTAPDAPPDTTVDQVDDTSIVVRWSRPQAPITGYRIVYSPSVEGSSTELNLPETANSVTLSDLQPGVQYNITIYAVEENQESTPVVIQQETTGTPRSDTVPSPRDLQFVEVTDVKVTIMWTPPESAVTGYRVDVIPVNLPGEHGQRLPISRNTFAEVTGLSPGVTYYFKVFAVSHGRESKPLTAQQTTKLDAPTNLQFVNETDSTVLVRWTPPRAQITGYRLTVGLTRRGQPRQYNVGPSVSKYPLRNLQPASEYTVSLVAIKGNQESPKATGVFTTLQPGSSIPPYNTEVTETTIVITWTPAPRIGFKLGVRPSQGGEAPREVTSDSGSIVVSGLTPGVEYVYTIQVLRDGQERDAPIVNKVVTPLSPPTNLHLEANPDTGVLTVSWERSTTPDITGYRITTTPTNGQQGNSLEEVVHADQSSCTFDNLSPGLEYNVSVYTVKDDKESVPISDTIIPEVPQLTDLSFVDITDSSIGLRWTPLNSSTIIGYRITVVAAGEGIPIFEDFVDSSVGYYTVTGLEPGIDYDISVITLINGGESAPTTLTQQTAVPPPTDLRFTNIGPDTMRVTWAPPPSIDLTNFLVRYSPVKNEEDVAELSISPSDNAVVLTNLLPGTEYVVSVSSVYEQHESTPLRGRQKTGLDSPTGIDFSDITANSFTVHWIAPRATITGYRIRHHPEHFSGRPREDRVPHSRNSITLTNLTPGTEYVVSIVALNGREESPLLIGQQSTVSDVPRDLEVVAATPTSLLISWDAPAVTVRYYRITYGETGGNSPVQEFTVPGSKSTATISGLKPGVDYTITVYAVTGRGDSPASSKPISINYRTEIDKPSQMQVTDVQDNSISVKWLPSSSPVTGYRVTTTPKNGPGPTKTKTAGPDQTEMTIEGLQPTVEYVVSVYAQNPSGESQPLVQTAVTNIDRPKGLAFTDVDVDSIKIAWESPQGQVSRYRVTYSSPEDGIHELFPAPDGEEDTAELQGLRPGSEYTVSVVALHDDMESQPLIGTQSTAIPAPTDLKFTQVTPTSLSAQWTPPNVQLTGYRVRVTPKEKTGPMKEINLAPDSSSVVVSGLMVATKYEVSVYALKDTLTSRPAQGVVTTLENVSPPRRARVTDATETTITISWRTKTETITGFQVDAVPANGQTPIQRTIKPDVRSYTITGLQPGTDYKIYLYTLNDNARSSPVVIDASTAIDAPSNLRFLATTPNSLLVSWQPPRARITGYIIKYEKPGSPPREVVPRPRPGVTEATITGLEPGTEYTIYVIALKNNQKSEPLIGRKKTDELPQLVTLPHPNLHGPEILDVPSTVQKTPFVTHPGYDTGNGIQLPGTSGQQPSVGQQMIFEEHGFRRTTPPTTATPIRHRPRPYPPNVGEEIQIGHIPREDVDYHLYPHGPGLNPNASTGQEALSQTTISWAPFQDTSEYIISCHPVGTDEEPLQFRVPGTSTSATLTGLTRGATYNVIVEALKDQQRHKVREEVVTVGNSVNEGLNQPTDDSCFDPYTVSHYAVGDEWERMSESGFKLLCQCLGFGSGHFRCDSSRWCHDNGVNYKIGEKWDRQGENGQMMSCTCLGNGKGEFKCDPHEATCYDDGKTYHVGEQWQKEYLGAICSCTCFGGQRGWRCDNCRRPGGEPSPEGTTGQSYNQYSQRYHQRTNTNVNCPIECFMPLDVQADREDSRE

FN [3] = assay: ELISA for fibronectin binding to immobilized CD9, His6-rCD9 or peptide; parameters: species or system human; settings: for soluble FN binding to immobilized peptide compared to intact platelet purified CD9: FN 75 μg/ml
Experimental: (§2) All incubation periods for the CD9/FN binding ELISA lasted two hours at RT unless otherwise indicated. Immulon I (Dynatech) microtiter plate wells were coated with CD9 (2 μg/ml), His6-rCD9 (2 μg/ml), BSA (10 μg/ml), or peptide (10 μM) in Buffer A. After one wash with Buffer B, plates were blocked with Blocking Buffer 1.1% BSA was included in steps from ligand overlay to addition of mAb conjugate to minimize non-specific binding. Titrations of human plasma FN in Buffer B were added to plates either alone, or in the case of competition ELISAs, with 0-160 μM synthetic peptide. Plates were washed three times with ELISA Buffer B, followed by incubation with a 1/1000 dilution of rabbit anti-FN antibody. After two washes with Buffer B and one wash with Buffer C, plates were incubated with 1/500 antirabbit IgG alkaline phosphatase in Buffer C for one hour at RT. After four washes with Buffer C, 1 mg/mlp-nitrophenyl phosphate substrate was added and the absorbance at 405 nm was recorded.

CHO A6 cells = assay: Basic adhesion assay of CHO A6 cells on FN; format: cell-based; settings: 0.5 μM peptide, 3 hours
Experimental: 24-well culture plate wells were coated with human plasma FN (10 μg/mL FN in PBS for 3 hours at 37° C.) and blocked with PBS, 3% bovine serum albumin (BSA) for 1 hour at 37° C. Mock- and CD9-CHO cells were harvested as described previously. After a 30-minute rest period at 37° C., 10^5 cells/well were seeded in FN-coated 24-well plates and incubated for 3 hours at 37° C. For some experiments, cells were incubated in the presence of 0.5 μM of peptides corresponding to amino acid sequences of CD9 EC2. Wells were washed 4 times with adhesion media, stained with modified Wright Giemsa, and adherent cells were counted in five randomly selected high-power fields of view per well using an inverted phase contrast microscope, Olympus IMT-2 (Olympus, Lake Success, N.Y.). All assays were run in triplicate, and the cell counts were reported as the number of adherent cells/mm^2 of well surface area. The mean number of adherent cells/mm^2±SE of 3 independent assays were reported (n=45).

[4] = tested on: mAb7 binding to CD9 expressed on CHO A6 cells; assay: Flow cytometry: peptide blocking of mAb7 binding to CD9 on CHO A6 cells; parameters: species or system human; settings: 100 μg peptide with 1 μg mAb7
Experimental: 100 μg of peptide 5a, 5, 5b, or 6a was incubated with 1 μg mAb7 for 30 minutes at room temperature. CD9 CHO cells (clone A6) were harvested, washed twice with PBS, and resuspended in labeling media (2.5×10^5 cells/mL); 4 μL mAb7-peptide solution was added to 2.5×10^5 cells and incubated for 1 hour at 4° C. MOPC2, and mAb7 alone were used as negative and positive controls, respectively. Cells were washed with PBS, resuspended in labeling media, and bound mAb7 was detected with a species-specific FITC-conjugated second antibody, followed by flow cytometry as described above.

CD9-CHO-B2 cells = assay: Adhesion of CD9-CHO-B2 cells (lacking integrin α5β1) to FN, peptide inhibition; format: cell-based; settings: peptide 0.5 μM
Experimental: CHO cell adhesion assays were done as described by Cook et al. (Exp. Cell. Res. 251:356-371 (1999), which is hereby incorporated by reference in its entirety). Briefly, 24-well cell culture plates (Coming, Acton, Mass.) were coated with FN (10 μg/ml) and blocked with PBS, 3% BSA. CHO cells were cell synchronized, harvested, and resuspended at 1×10^5 cell/ml in adhesion media (RPMI, 1% BSA). For peptide inhibition studies, peptides were added to CHO cell suspension to give a final concentration of 0.5 μM and cells were incubated at 37° C. for 30 minutes. 1 ml CHO cell suspension was added to each well and CHO cells were allowed to adhere for either 3 or 6 hours, then adherent cells were stained with Wright Giemsa and counted.

CD9-CHO cells = format: cell-based; settings: FN coated inserts blocked with peptide (0.5 μM)
Experimental: The motility assays were performed using two methodologies. The first method was modified from Bauer et al. (J. Cell. Biol. 116:477-487 (1992), which is hereby incorporated by reference in its entirety). Cell cycle synchronized CHO cells were seeded into tissue culture plates, grown to approximately 50% confluency, and harvested. The cells were washed twice with Media A, adjusted to 4×10^5/ml, allowed to rest at 37° C. for 30 min in Media B, then transferred into modified Boyden chambers. The upper and lower chambers were separated by a polycarbonate filter, with 8 μm pores, pre-coated on the underside only with 10 μg/ml FN. After 3 or 6 hours, cells on the FN-coated side of the filters were fixed, stained with hematoxylin, and mounted onto slides. The total numbers of adherent cells from five high-powered fields (HPF) per filter were counted per time point per assay. The second method for assessing the motility of CD9-transfected CHO cells utilized 10 mm polycarbonate tissue culture inserts with 8 μm pores (Nunc, Rochester, N.Y.). Tissue culture inserts were coated on the underside with FN as described above for Boyden Chambers. […] CHO cells adhered to the FN-coated underside of tissue culture inserts were stained with Wrights Giemsa and the number of adherent cells in five random high power fields were counted per time point per assay. […]

human coronary SMCs [5] = assay: SMC migration, monolayer-wounding assay; format: cell-based; settings: 2% serum, 24 h
Experimental: as §1

FN-CD9 binding = assay: Competition ELISA: effect of peptides on FN binding to immobilized CD9; parameters: species or system human
Experimental: as §2

[6] = FN concentration, 2.5 mM Ca2+, read-out: half maximal binding with FN

Compound: [Ca+2].[Cl-].[Cl-] [CaCl2]
- effect of cation on CD9/FN interaction (FN/CD9 interaction): stimulated

Compound: NC(=O)NO [hydroxyurea]
- inhibition at 5000 µM (human coronary SMCs [1]): > 99%

Compound: CD9: purified platelet CD9, 24 kDa integral membrane glycoprotein (SEQ ID NO: 1)
- association between captured FN and purified CD9 (FN [2]): specific association
- half-maximal binding of soluble FN to immobilized CD9 (FN [3]; 2.5 mM CaCl2, FN concentration): 35.6 µg/mL
- pEC50 (FN [3]; 2.5 mM CaCl2, FN concentration, read-out: half-maximal binding of soluble FN to immobilized CD9): 7.09
- pEC50 (FN [3]; [6]): 7.09
- pKd (FN [3]; platelet-derived or recombinant CD9, read-out: affinity of FN-CD9 interaction): 7.10

Compound: His6-rCD9: bacterially expressed histidine tagged recombinant CD9
- pEC50 (FN [3]; [6]): 6.92
- binding to FN lower than for purified CD9 (absolute ELISA values) (FN [3]; versus purified platelet CD9): 40%

Compound: KDEPQRETLKAIHYALNCCGLAGGVEQFISDICPKKDV [peptide 5b]
- effect on adhesive phenotype of CHO A6 cells on FN (CHO A6 cells): equivalent to that of CHO MOCK cells; also recorded: reversed the adhesive phenotype; also recorded: reversed the inhibitory influence of CD9
- blocking of mAb7 binding to cell surface CD9 [4]: blocked mAb7 binding to soluble CD9 and to CD9 on intact cells

Compound: KEFDFKAPSVCKVEDIDTKTL [peptide 6S, reference compound]
- effect on CD9-CHO-B2 cell adhesion to FN (CD9-CHO-B2 cells): no significant effect
- effect on CD9-mediated CHO cell motility to FN (CD9-CHO cells): lack of inhibition

Compound: PKKDVLETFTVKSCPDAI [peptide 6a]
- effect on adhesive phenotype of CHO A6 cells on FN (CHO A6 cells): equivalent to that of CHO MOCK cells; also recorded: reversed the inhibitory influence of CD9
- blocking of mAb7 binding to cell surface CD9 [4]: blocked mAb7 binding

Compound: PKKDVLETFTVKSCPDAIKEVFDNK [peptide 6]
- effect on SMC migration (human coronary SMCs [5]): dose dependent inhibitory effect
- maximal inhibitory effect on serum-induced migration (human coronary SMCs [5]; at 40 μM): ~65%
- inhibition of FN binding to CD9 (FN-CD9 binding; peptide 0-160 μM): significantly inhibited; also recorded: competitively inhibited binding of FN to purified CD9 in a dose-dependent fashion; also recorded: partially inhibited
- peptide concentration at maximal inhibition of FN binding to CD9 (FN-CD9 binding; titration 0-160 μM): 60 µM
- effect on adhesive phenotype of CHO A6 cells on FN (CHO A6 cells): reversed the adhesive phenotype
- direct binding of FN (FN [3]): binds directly
- soluble FN binding to immobilized peptide compared to intact platelet purified CD9 (FN [3]): 65%
- blocking of mAb7 binding to cell surface CD9 [4]: blocked mAb7 binding to soluble CD9 and to CD9 on intact cells
- effect on CD9-CHO-B2 cell adhesion to FN (CD9-CHO-B2 cells): able to block
- effect on CD9-CHO-B2 cell adhesion to FN (CD9-CHO-B2 cells; listed as Peptide 6): inhibited the adhesion level of CD9-CHO-B2 cells on FN to that seen with Mock-CHO-B2 cells
- effect on CD9-mediated CHO cell motility to FN (CD9-CHO cells): competitively inhibited

Compound: YKDTYNKLKTKDEPQRETLKAI [peptide 5]
- effect on adhesive phenotype of CHO A6 cells on FN (CHO A6 cells): no effect
- soluble FN binding to immobilized peptide compared to intact platelet purified CD9 (FN [3]): 19%
- blocking of mAb7 binding to cell surface CD9 [4]: neither peptide 5a nor 5 blocked

Compound: YSHKDEVIKEVQEFYKDTYNKLKT [peptide 5a]
- blocking of mAb7 binding to cell surface CD9 [4]: neither peptide 5a nor 5 blocked
